Assay results from patent US10131642B1, “Aldosterone synthase inhibitors” (Boehringer Ingelheim International GmbH, priority 2015, dated 2018).

Experiments:
[1] = biological target: cortisol synthase (CYP11B1) (Macaca fascicularis, UniProt A0A2K5ULY1); experiment: Inhibition of cortisol synthesis (cynomolgus adrenal mitochondria, cortisol by mass spectrometry); type: biochemical, cynomolgus monkey; conditions: cynomolgus adrenal gland mitochondria, 11-deoxycortisol as substrate, cortisol measured as product; read-out: CYP11B1 Inhibition IC50
Experimental: The aldosterone synthase and cortisol synthase inhibition assays employ cynomolgus adrenal gland mitochondria as the source of aldosterone synthase (CYP11B2) and cortisol synthase (CYP11B1). Mitochondria are prepared from frozen cynomolgus monkey adrenal glands according to Method A described in by J. D. McGarry et al. (Biochem. J., 1983, 214, 21-28), with a final resuspension in the AT buffer described in R. Yamaguchi et al. (Cell Death and Differentiation, 2007, 14, 616-624), frozen as aliquots in liquid nitrogen and stored at −80° C. until use. Activity of CYP11B2 and CYP11B1 in these preparations is defined as the amount of enzyme that generates 1 pmol of product in one hour under the conditions described. Dose dependent inhibition is quantified by the inclusion of compound at various concentrations. Maximum activity (100%) is defined by reactions containing NADPH, but without compound. Activities at each concentration are expressed as a percentage of the maximum activity (y-axis) and plotted against concentration of compound (x-axis) and the concentration corresponding to 50% activity (IC50) determined using the XLFit curve-fitting program using a 4-parameter logistic model. Assays are performed as for aldosterone synthase except for the use of 150 units of CYP11B1, 11-deoxycortisol as substrate and cortisol measured as product.

[2] = biological target: T1, aldosterone synthase (CYP11B2) (Macaca fascicularis, UniProt A0A2K5UPL9); experiment: Inhibition of aldosterone synthase (cynomolgus adrenal mitochondria, aldosterone by mass spectrometry); type: biochemical, cynomolgus monkey; conditions: cynomolgus adrenal gland mitochondria, 2 μM corticosterone substrate, 90 minutes at 37° C.
T1 construct: cynomolgus adrenal gland mitochondria as the source of aldosterone synthase (CYP11B2); from tissue; host or cells: cynomolgus monkey adrenal gland mitochondria
T1 sequence (A0A2K5UPL9 1-503): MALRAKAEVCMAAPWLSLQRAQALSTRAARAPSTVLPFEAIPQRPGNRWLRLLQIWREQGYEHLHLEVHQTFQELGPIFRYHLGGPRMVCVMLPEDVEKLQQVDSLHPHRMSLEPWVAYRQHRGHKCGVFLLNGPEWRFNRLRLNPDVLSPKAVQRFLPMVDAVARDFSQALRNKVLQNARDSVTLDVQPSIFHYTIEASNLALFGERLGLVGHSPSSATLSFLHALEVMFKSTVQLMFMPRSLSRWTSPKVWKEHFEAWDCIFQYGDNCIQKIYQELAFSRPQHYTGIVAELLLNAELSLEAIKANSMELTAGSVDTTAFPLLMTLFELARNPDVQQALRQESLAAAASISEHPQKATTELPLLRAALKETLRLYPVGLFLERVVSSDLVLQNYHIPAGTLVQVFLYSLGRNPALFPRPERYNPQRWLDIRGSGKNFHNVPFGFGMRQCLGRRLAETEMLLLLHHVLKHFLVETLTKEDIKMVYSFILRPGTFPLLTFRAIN
Experimental: The aldosterone synthase and cortisol synthase inhibition assays employ cynomolgus adrenal gland mitochondria as the source of aldosterone synthase (CYP11B2) and cortisol synthase (CYP11B1). Mitochondria are prepared from frozen cynomolgus monkey adrenal glands according to Method A described in by J. D. McGarry et al. (Biochem. J., 1983, 214, 21-28), with a final resuspension in the AT buffer described in R. Yamaguchi et al. (Cell Death and Differentiation, 2007, 14, 616-624), frozen as aliquots in liquid nitrogen and stored at −80° C. until use. Activity of CYP11B2 and CYP11B1 in these preparations is defined as the amount of enzyme that generates 1 pmol of product in one hour under the conditions described.
Assays are performed in 96-well format in a final volume of 60 µL/well, containing 100 mM potassium phosphate, pH 7.4, 1% (v/v) DMSO, and additionally, 2 μM of corticosterone and 50 units of CYP11B2 activity. Reactions are started by the addition of NADPH to 1 mM and allowed to proceed for 90 minutes at 37° C. Reactions are terminated by the addition of 60 μL of MeCN containing an internal standard for mass spectrometry. One hundred microliters are then transferred to a glass filter plate and centrifuged at 570×g for 5 minutes and the filtrate is collected. Reaction product aldosterone is quantified by mass spectrometry. To determine the assay blank value (0% activity), NADPH is omitted from some reactions.
Dose dependent inhibition is quantified by the inclusion of compound at various concentrations. Maximum activity (100%) is defined by reactions containing NADPH, but without compound. Activities at each concentration are expressed as a percentage of the maximum activity (y-axis) and plotted against concentration of compound (x-axis) and the concentration corresponding to 50% activity (IC50) determined using the XLFit curve-fitting program using a 4-parameter logistic model.

Row | SMILES | IC50 [1] [nM] | IC50 [2] [nM]
1 | CC1(C)CC(=O)c2c(noc2Cc2ccc(OCCCS(C)(=O)=O)cc2)C1 [Cpd 27, 3-[4-(3-Methanesulfonyl-propoxy)-benzyl]-6,6-dimethyl-6,7-dihydro-5H-benzo[c]isoxazol-4-one] | 3400 | 59
2 | N#Cc1ccc(Cc2onc3c2C(=O)CC(Cc2ccccc2)C3)cc1 (stereo not shown) [Cpd 28, 4-(6-Benzyl-4-oxo-4,5,6,7-tetrahydro-benzo[c]isoxazol-3-ylmethyl)-benzonitrile] | 4900 | 65
3 | CC1(C)CC(=O)c2c(noc2Cc2ccc(OCCS(C)(=O)=O)cc2)C1 [Cpd 29, 3-[4-(2-Methanesulfonyl-ethoxy)-benzyl]-6,6-dimethyl-6,7-dihydro-5H-benzo[c]isoxazol-4-one] | 7400 | 73
4 | N#Cc1ccc(Cc2onc3c2C(=O)CC(CC2CC2)C3)cc1 (stereo not shown) [Cpd 30, 4-(6-Cyclopropylmethyl-4-oxo-4,5,6,7-tetrahydro-benzo[c]isoxazol-3-ylmethyl)-benzonitrile] | 14000 | 74
5 | CC1(C)CC(=O)c2c(noc2Cc2cccc(F)c2)C1 [Cpd 31, 3-(3-Fluoro-benzyl)-6,6-dimethyl-6,7-dihydro-5H-benzo[c]isoxazol-4-one] | 7400 | 84
6 | CC1(C)CC(=O)c2c(noc2Cc2ccc(Br)cc2)C1 [Cpd 33, 3-(4-Bromo-benzyl)-6,6-dimethyl-6,7-dihydro-5H-benzo[c]isoxazol-4-one] | 4100 | 92
7 | COc1ccc(Cc2onc3c2C(=O)CC(C)(C)C3)cc1C#N [Cpd 34, 5-(6,6-Dimethyl-4-oxo-4,5,6,7-tetrahydro-benzo[c]isoxazol-3-ylmethyl)-2-methoxy-benzonitrile] | 25000 | 120
8 | CC1(C)CC(=O)c2c(noc2Cc2ccc3c(c2)NC(=O)CO3)C1 [Cpd 35, 6-(6,6-Dimethyl-4-oxo-4,5,6,7-tetrahydro-benzo[c]isoxazol-3-ylmethyl)-4H-benzo[1,4]oxazin-3-one] | 5200 | 160
9 | CC1CC(=O)c2c(noc2Cc2ccc(C#N)cc2)C1 (stereo not shown) [Cpd 36, 4-(6-Methyl-4-oxo-4,5,6,7-tetrahydro-benzo[c]isoxazol-3-ylmethyl)-benzonitrile] | 7600 | 200
10 | CC1(C)CC(=O)c2c(noc2Cc2ccc(C#N)c(F)c2)C1 [Cpd 37, 4-(6,6-Dimethyl-4-oxo-4,5,6,7-tetra hydro-benzo[c]isoxazol-3-ylmethyl)-2-fluoro-benzonitrile] | 11000 | 74
11 | N#Cc1ccc(Cc2onc3c2C(=O)CC2(CCC2)C3)cc1 [Cpd 38, 4-(-6,6-spiro-cyclobutyl-4-oxo-4,5,6,7-tetrahydro-benzo[c]isoxazol-3-ylmethyl)-benzonitrile] | 1000 | 55
12 | CC1(C)CC(=O)c2c(noc2Cc2ccc(C(=O)O)cc2)C1 [Cpd 40, 4-(6,6-Dimethyl-4-oxo-4,5,6,7-tetrahydro-benzo[c]isoxazol-3-ylmethyl)-benzoic acid] | > 100000 | > 1000
13 | CC1CC(=O)c2c(noc2Cc2ccc(C(=O)O)cc2)C1 (stereo not shown) [Cpd 41, 4-(6-Methyl-4-oxo-4,5,6,7-tetrahydro-benzo[c]isoxazol-3-ylmethyl)-benzoic acid] | 20000 | 660
14 | O=C(O)c1ccc(Cc2onc3c2C(=O)CC(Cc2ccccc2)C3)cc1 (stereo not shown) [Cpd 42, 4-(6-Benzyl-4-oxo-4,5,6,7-tetrahydro-benzo[c]isoxazol-3-ylmethyl)-benzoic acid] | > 100000 | 180
15 | O=C(O)c1ccc(Cc2onc3c2C(=O)CC(CC2CC2)C3)cc1 (stereo not shown) [Cpd 45, 4-(6-Cyclopropylmethyl-4-oxo-4,5,6,7-tetrahydro-benzo[c]isoxazol-3-ylmethyl)-benzoic acid] | 64000 | 420
16 | CC1(C)CC(=O)c2c(noc2Cc2ccc(C(=O)N3CC[C@@H](O)C3)cc2)C1 [Cpd 46, 3-[4-((R)-3-Hydroxy-pyrrolidine-1-carbonyl)-benzyl]-6,6-dimethyl-6,7-dihydro-5H-benzo[c]isoxazol-4-one] | 5800 | 130
17 | CC(C)C1CC(=O)c2c(noc2Cc2ccc(OCCCS(C)(=O)=O)cc2)C1 (stereo not shown) [Cpd 47, 6-Isopropyl-3-[4-(3-methanesulfonyl-propoxy)-benzyl]-6,7-dihydro-5H-benzo[c]isoxazol-4-one] | 130 | 20
18 | CC1CC(=O)c2c(noc2Cc2ccc(OCCCS(C)(=O)=O)cc2)C1 (stereo not shown) [Cpd 48, 3-[4-(3-Methanesulfonyl-propoxy)-benzyl]-6-methyl-6,7-dihydro-5H-benzo[c]isoxazol-4-one] | 670 | 46

Other lines, results leading:

Row | IC50 [1] [nM] | IC50 [2] [nM] | SMILES
19 | 1100 | 150 | CS(=O)(=O)CCCOc1ccc(Cc2onc3c2C(=O)CC(Cc2ccccc2)C3)cc1 (stereo not shown) [Cpd 49, 6-Benzyl-3-[4-(3-methanesulfonyl-propoxy)-benzyl]-6,7-dihydro-5H-benzo[c]isoxazol-4-one]
20 | 580 | 72 | CS(=O)(=O)CCCOc1ccc(Cc2onc3c2C(=O)CC2(CCC2)C3)cc1 [Cpd 50, 3-[4-(3-Methanesulfonyl-propoxy)-benzyl]-6-6-spirocyclebutyl-6,7-dihydro-5H-benzo [c]isoxazol-4-one]
21 | 3700 | 21 | NC(=O)c1ccc(Cc2onc3c2C(=O)CC(CC2CC2)C3)cc1 (stereo not shown) [Cpd 51, 4-(6-Cyclopropylmethyl-4-oxo-4,5,6,7-tetrahydro-benzo[c]isoxazol-3-ylmethyl)-benzamide]
22 | 14000 | 32 | CC1(C)CC(=O)c2c(noc2Cc2ccc(C(=O)N3CCCC3)cc2)C1 [Cpd 52, 6,6-Dimethyl-3-[4-(pyrrolidine-1-carbonyl)-benzyl]-6,7-dihydro-5H-benzo[c]isoxazol-4-one]
23 | 6700 | 42 | CC1(C)CC(=O)c2c(noc2Cc2ccc(C(=O)N3CC[C@H](S(C)(=O)=O)C3)cc2)C1 [Cpd 53, 3-[4-((S)-3-Methanesulfonyl-pyrrolidine-l-carbonyl)-benzyl]-6,6-dimethyl-6,7-dihydro-5H-benzo[c]isoxazol-4-one]
24 | 2500 | 58 | CC1(C)CC(=O)c2c(noc2Cc2ccc(C(=O)NCCS(N)(=O)=O)cc2)C1 [Cpd 54, 4-(6,6-Dimethyl-4-oxo-4,5,6,7-tetrahydro-benzo[c]isoxazol-3-ylmethyl)-N-(2-sulfamoyl-ethyl)-benzamide]
25 | 5400 | 68 | CCN(CCO)C(=O)c1ccc(Cc2onc3c2C(=O)CC(C)(C)C3)cc1 [Cpd 55, 4-(6,6-Dimethyl-4-oxo-4,5,6,7-tetrahydro-benzo[c]isoxazol-3-ylmethyl)-N-ethyl-N-(2-hydroxy-ethyl)-benzamide]
26 | 11000 | 69 | COCCN(C)C(=O)c1ccc(Cc2onc3c2C(=O)CC(C)(C)C3)cc1 [Cpd 56, 4-(6,6-Dimethyl-4-oxo-4,5,6,7-tetrahydro-benzo[c]isoxazol-3-ylmethyl)-N-(2-methoxy-ethyl)-N-methyl-benzamide]
